The values below come from US20250129086A1, “COMPOUND FOR DEGRADING EGFR PROTEIN AND USE THEREOF” (TYK MEDICINES, INC., priority 2021, published 2025).

Experiment [1] has as its system H1975 (EGFR L858R/T790M double mutation). Put plainly: Cell antiproliferative assay (CTG, 72 h), H1975. In kind it is cell-based, human. The conditions noted are these: Homo sapiens, NCI-H1975, 72 h. In short, it runs like this: (§1)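 Cells seeded at 1500-2500 per well, compounds added about 24 h later as a 1:4 gradient from 10,000 nM top concentration in triplicate. After 72 h, viability read by CellTiter-Glo luminescence relative to 0.1% DMSO and blank-medium controls; IC50 from curve fitting.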

Experiment [2] deals with PC-9 (EGFR exon 19 deletion). Put plainly: Cell antiproliferative assay (CTG, 72 h), PC-9. The conditions noted are these: Homo sapiens, PC-9, 72 h. The class given is cell-based, human. The method, boiled down: as §1
Experiment [3] has as its system HCC827 (exon 19 deletion mutation). Kind of experiment: Cell antiproliferative assay (CTG, 72 h), HCC827. In kind it is cell-based, human. The conditions noted are these: Homo sapiens, HCC827, 72 h. In short, it runs like this: as §1
The target in a further experiment is T1, EGFR (Homo sapiens, UniProt P00533, DEL746-750).
T1 construct: host or cells: HCC827
Kind of experiment: EGFR PROTAC In Cell Western assay in HCC827. The note with it: HCC827, EGFR degradation, 16 hours of incubation. In kind it is cell-based. An excerpt:
Test Example 2 EGFR PROTAC in Cell Western Assay
HCC827 cell culture medium was purchased from Corning. Cell line HCC827 was purchased from BeNa Culture Collection; EGF Receptor (D38B1) XP Rabbit mAb antibody and β-Actin (8H10D10) Mouse mAb antibody were from CST. IRDye 800CW, IRDye 680RD, and Intercept blocking solution (PBS) were purchased from Licor. Triton-100 was purchased from sigma, and 96-well black cell culture imaging microtiter plates were purchased from Agilent.
1) HCC827 cells were cell counted and cells were inoculated into 96-well black cell culture imaging microtiter plates at a density of 40,000 cells per well, with 100 μl per well. The plate was incubated overnight in a CO2 incubator.
2) Day 1: A gradient dilution of the compound to be tested was added to the cells of the culture plate (with a starting concentration of […], 9 concentrations, a dilution ratio of 1:3, 2 duplicate wells), with a final concentration of DMSO being 0.5%, and a blank control of DMSO without compound. The plate was placed in the cell culture incubator for a final 16 hours of incubation.
3) The culture medium was removed from the 96 wells with a pipette and the residual medium was washed with […] of PBS per well on a shaker for 5 min. After the removal of PBS, cells were quickly fixed by adding 150 μl of fresh fixation buffer (3.7% paraformaldehyde) and incubated for 20 min at room temperature.
4) The fixation buffer was removed and […] of Triton elution buffer (0.3% Triton-100) was added to wash for four times on a shaker for 5 minutes each time.
5)[…] LI-COR Odyssey blocking solution was added and the cells were incubated for 1.5 hours at room temperature with slow shaking on a shaker.
6) To block the samples, a primary antibody against EGFR and Actin were prepared using Antibody Dilution Buffer at a ratio of 1:300. The blocking solution was poured out and the diluted primary antibody was added (at a total volume of 50 μl/per well). The cell plate was covered and incubated at 4° C. overnight.
7) The cell plate was washed four times with PBS+Triton X-100 for 5 minutes each time.
8) Fluorescently labeled secondary antibodies IRDye® 680RD and IRDye® 800CW were diluted with Antibody Dilution Buffer (with a ratio of 1:600, at a total volume of 50 μl/well) and then incubated for one hour at room temperature, protected from light.
9) The cell plate was washed four times with PBS+Triton X-100 for 5 minutes each time.
After pipetting the PBS thoroughly, the plate was inverted and imaged on a Burroughs imager. A multiple exposure program was selected, IRDye 680RD Blot was chosen for the first channel, and IRDye 800CW Blot was chosen for the second channel. […] The blank group was the DMSO group, EGFR/Actin was calculated as the EGFR value of the corresponding sample wells, and the degradation rate=100-100*EGFR signal/DMSO signal. The DC50 and Dmax of the degraded EGFR proteins were calculated by fitting curves using the Prism software, 3-parameter method.

T1 sequence (P00533 with tags, fused parts or gaps DEL746-750): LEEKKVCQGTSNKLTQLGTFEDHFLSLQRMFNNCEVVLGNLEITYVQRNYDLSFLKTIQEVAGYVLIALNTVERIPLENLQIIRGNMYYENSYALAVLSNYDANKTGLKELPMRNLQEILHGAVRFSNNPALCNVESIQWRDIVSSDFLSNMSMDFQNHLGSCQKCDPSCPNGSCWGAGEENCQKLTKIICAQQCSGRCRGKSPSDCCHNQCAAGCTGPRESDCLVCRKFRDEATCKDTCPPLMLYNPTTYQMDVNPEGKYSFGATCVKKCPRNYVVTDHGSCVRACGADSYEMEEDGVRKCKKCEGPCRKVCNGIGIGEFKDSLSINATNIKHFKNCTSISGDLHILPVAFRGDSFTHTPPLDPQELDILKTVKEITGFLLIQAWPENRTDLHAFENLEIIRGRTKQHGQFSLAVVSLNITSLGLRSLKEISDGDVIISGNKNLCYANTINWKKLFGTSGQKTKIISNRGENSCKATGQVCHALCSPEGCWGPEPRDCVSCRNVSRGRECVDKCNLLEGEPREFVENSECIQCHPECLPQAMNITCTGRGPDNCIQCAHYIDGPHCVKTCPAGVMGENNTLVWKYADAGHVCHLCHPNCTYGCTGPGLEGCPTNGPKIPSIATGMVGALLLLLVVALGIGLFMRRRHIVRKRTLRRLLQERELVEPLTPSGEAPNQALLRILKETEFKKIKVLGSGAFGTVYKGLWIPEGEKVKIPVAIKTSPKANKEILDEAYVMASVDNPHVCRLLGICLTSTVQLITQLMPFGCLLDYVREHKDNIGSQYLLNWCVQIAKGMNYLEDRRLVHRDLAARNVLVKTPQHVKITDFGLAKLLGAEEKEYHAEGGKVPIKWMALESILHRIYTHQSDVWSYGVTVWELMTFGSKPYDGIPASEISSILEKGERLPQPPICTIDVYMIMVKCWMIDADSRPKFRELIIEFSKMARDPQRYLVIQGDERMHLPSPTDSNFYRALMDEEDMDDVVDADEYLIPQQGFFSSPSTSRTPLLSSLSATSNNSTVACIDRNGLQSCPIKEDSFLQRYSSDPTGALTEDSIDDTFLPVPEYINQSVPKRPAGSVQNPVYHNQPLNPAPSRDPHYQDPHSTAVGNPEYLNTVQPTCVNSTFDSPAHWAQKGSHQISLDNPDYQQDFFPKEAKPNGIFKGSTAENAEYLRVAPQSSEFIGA

On to `COc1cc(N2CCN(C(=O)CN3CCN(c4ccc(NC5CCC(=O)NC5=O)nc4)CC3)CC2)ccc1Nc1ncc(Cl)c(Nc2ccccc2C(C)=O)n1` (stereo not shown) [Compound T-101], for which the IC50 – broadly, the midpoint of a concentration-inhibition curve – fell in the range of 100 to 1000 nM in experiment [1] (Table 2, H1975 cells); 100 to 1000 nM in experiment [2] (Table 2, PC-9 cells); 100 to 1000 nM in experiment [3] (Table 2, HCC827 cells). In addition, the Dmax (usually the largest share of the target that was removed) on EGFR (HCC827, Table 4) fell in the range of 50 to 70%. The DC50 (as a rule, the concentration at which degradation of the target reaches its halfway point) on EGFR (Table 4) lay in the range of 10 to 100 nM.

On to `COc1cc(N2CCC(N3CCN(C(=O)CN4CCC(c5ccc(NC6CCC(=O)NC6=O)cc5)CC4)CC3)CC2)ccc1Nc1ncc(Cl)c(Nc2ccccc2C(C)=O)n1` (stereo not shown) [Compound T-121], for which the IC50 in experiment [1] (Table 2, H1975 cells) was 100 to 1000 nM; in experiment [2] (Table 2, PC-9 cells) it was not below 1000 nM; in experiment [3] (Table 2, HCC827 cells), 100 to 1000 nM. This molecule yielded a Dmax on EGFR (HCC827, Table 4) of 50 to 70%. On EGFR (Table 4), this molecule returned a DC50 of 100 to 1000 nM.

Regarding `COc1cc(N2CC3CC(C2)N3C(=O)CN2CCC(c3ccc(NC4CCC(=O)NC4=O)cc3)CC2)ccc1Nc1ncc(Cl)c(Nc2ccccc2C(C)=O)n1` (stereo not shown) [Compound T-125], the half-maximal inhibitory concentration (IC50) is 100 to 1000 nM in experiment [1] (Table 2, H1975 cells); not below 1000 nM in experiment [2] (Table 2, PC-9 cells); 100 to 1000 nM in experiment [3] (Table 2, HCC827 cells). In addition, the Dmax on EGFR (HCC827, Table 4) is less than 50%. The same molecule came in with a DC50 at EGFR (Table 4) of 10 to 100 nM.

As for `COc1cc(N2CCC(N(C)C(=O)CN3CCC(c4ccc(NC5CCC(=O)NC5=O)cc4)CC3)CC2)ccc1Nc1ncc(C(F)(F)F)c(Nc2ccccc2C(C)=O)n1` (stereo not shown) [Compound T-163], the IC50 in experiment [1] (Table 2, H1975 cells) fell in the range of 10 to 100 nM; in experiment [2] (Table 2, PC-9 cells), 100 to 1000 nM; in experiment [3] (Table 2, HCC827 cells) it was 100 to 1000 nM. The Dmax at EGFR (HCC827, Table 4) was in the range of 50 to 70%. The DC50 on EGFR (Table 4) was 100 to 1000 nM.

For `COc1cc(N2CC(NC(=O)CN3CCC(c4ccc(NC5CCC(=O)NC5=O)cc4)CC3)C2)ccc1Nc1ncc(Cl)c(Nc2ccccc2C(C)=O)n1` (stereo not shown) [Compound T-169], the IC50 lay within 100 to 1000 nM in experiment [1] (Table 2, H1975 cells); 100 to 1000 nM in experiment [2] (Table 2, PC-9 cells); 100 to 1000 nM in experiment [3] (Table 2, HCC827 cells). Also, at EGFR (HCC827, Table 4), the Dmax is less than 50%. The same molecule came in with a DC50 on EGFR (Table 4) not below 1000 nM.

Consider `COc1cc(N2CC[C@H](N(C)C(=O)CN3CCC(c4ccc(NC5CCC(=O)NC5=O)cc4)CC3)C2)ccc1Nc1ncc(Cl)c(Nc2ccccc2C(C)=O)n1` (stereo partly shown) [Compound T-172], for which the IC50 in experiment [1] (Table 2, H1975 cells) was 100 to 1000 nM; in experiment [2] (Table 2, PC-9 cells) it was not below 1000 nM; in experiment [3] (Table 2, HCC827 cells), 10 to 100 nM. For the same molecule, the Dmax at EGFR (HCC827, Table 4) is less than 50%. On EGFR (Table 4), this molecule displayed a DC50 of 10 to 100 nM.

Consider `COc1cc(N2CCN(CCN3CCC(c4ccc(NC5CCC(=O)NC5=O)cc4)CC3)CC2)ccc1Nc1ncc(Cl)c(Nc2ccccc2C(C)=O)n1` (stereo not shown) [Compound T-182], for which the IC50 lay within 10 to 100 nM in experiment [1] (Table 2, H1975 cells); 100 to 1000 nM in experiment [2] (Table 2, PC-9 cells); 100 to 1000 nM in experiment [3] (Table 2, HCC827 cells). Besides, at EGFR (HCC827, Table 4), the Dmax was in the range of 50 to 70%. Also, at EGFR (Table 4), the DC50 lay in the range of 10 to 100 nM.

`CNC(=O)c1ccccc1Nc1nc(Nc2ccc(N3CCN(C(=O)CN4CCC(c5ccc(NC6CCC(=O)NC6=O)cc5)CC4)CC3)cc2OC)ncc1Cl` (stereo not shown) [Compound T-184]: the IC50 in experiment [1] (Table 2, H1975 cells) is not above 10 nM; in experiment [1] (Table 3, H1975 cells), 7.72 nM; in experiment [2] (Table 2, PC-9 cells), 100 to 1000 nM; in experiment [2] (Table 3, PC-9 cells), 122 nM; in experiment [3] (Table 2, HCC827 cells), 10 to 100 nM; in experiment [3] (Table 3, HCC827 cells), 14.2 nM. Moreover, the Dmax is 70 to 100% at EGFR (HCC827, Table 4) and 70.8% on EGFR (HCC827, Table 5). Besides, the DC50 at EGFR (Table 4) is 10 to 100 nM; at EGFR (Table 5), 10.2 nM.

In the case of `CNC(=O)c1ccccc1Nc1nc(Nc2ccc(N3CCN(C(=O)CN4CCC(c5ccc(NC6CCC(=O)NC6=O)cc5)CC4)CC3)cc2OC)ncc1Br` (stereo not shown) [Compound T-185], the IC50 in experiment [1] (Table 2, H1975 cells) is not above 10 nM; in experiment [2] (Table 2, PC-9 cells) it was 100 to 1000 nM; in experiment [3] (Table 2, HCC827 cells) it was 10 to 100 nM. This molecule also registered a Dmax on EGFR (HCC827, Table 4) of 70 to 100%. In addition, the DC50 at EGFR (Table 4) is not above 10 nM.

On to `COc1cc(N2CCN(C(=O)CN3CCC(c4ccc(NC5CCC(=O)NC5=O)cc4)CC3)CC2)ccc1Nc1ncc(Cl)c(Nc2ccccc2C(=O)C(C)C)n1` (stereo not shown) [Compound T-190], for which the half-maximal inhibitory concentration (IC50) in experiment [1] (Table 2, H1975 cells) is 10 to 100 nM; in experiment [2] (Table 2, PC-9 cells), 100 to 1000 nM; in experiment [3] (Table 2, HCC827 cells), 100 to 1000 nM. For the same molecule, the Dmax on EGFR (HCC827, Table 4) is 50 to 70%. The molecule also displayed a DC50 at EGFR (Table 4) not below 1000 nM.
